What was measured:
Assay in all cases: relative viability (nuclei count vs DMSO), 5 days (fraction); higher = more cells survive
[1] = compound: CC1=CC(=NN1)NC2=CC(=NC(=N2)/C=C/C3=CC=CC=C3)N4CCN(CC4)C + CCNC(=O)c1noc(-c2cc(C(C)C)c(O)cc2O)c1-c1ccc(CN2CCOCC2)cc1 [Luminespib] (partner 0.01 µM)
How it was run: (§1)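 After 5 days of treatment, lung cancer cells in 1536-well plates were fixed and stained in a single step (final 0.05% Triton X-100, 1% formaldehyde, 1 ug/ml Hoechst) and their nuclei counted on 4× images. Treatment had been applied by pin tool the day after seeding as one drug alone or as a fixed anchor-drug dose with five library-drug doses (not always all listed) in √10 steps. Relative viability is the nuclei count of treated wells divided by that of vehicle wells, and values are medians of duplicate plates.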

Obatoclax + Foretinib = compound: COC1=CC(c2cc3ccccc3[nH]2)=N/C1=C\c1[nH]c(C)cc1C [Obatoclax] + COc1cc2c(Oc3ccc(NC(=O)C4(C(=O)Nc5ccc(F)cc5)CC4)cc3F)ccnc2cc1OCCCN1CCOCC1 [Foretinib] (partner 0.25 µM)
How it was run: as §1

Obatoclax + Vorinostat = compound: COC1=CC(c2cc3ccccc3[nH]2)=N/C1=C\c1[nH]c(C)cc1C [Obatoclax] + O=C(CCCCCCC(=O)Nc1ccccc1)NO [Vorinostat] (partner 1 µM)
How it was run: as §1

[2] = compound: CC1=CC(=NN1)NC2=CC(=NC(=N2)/C=C/C3=CC=CC=C3)N4CCN(CC4)C + Cc1nc(Nc2ncc(C(=O)Nc3c(C)cccc3Cl)s2)cc(N2CCN(CCO)CC2)n1 [Dasatinib] (partner 0.075 µM)
How it was run: as §1

Cell Line	relative viability ([1]; first compound 0.08 µM)	relative viability ([1]; first compound 0.8 µM)	relative viability ([1]; first compound 2.53 µM)	relative viability ([1]; first compound 8 µM)	relative viability (Obatoclax + Foretinib; first compound 0.01 µM)	relative viability (Obatoclax + Foretinib; first compound 0.03162 µM)	relative viability (Obatoclax + Foretinib; first compound 0.1 µM)	relative viability (Obatoclax + Foretinib; first compound 0.3162 µM)	relative viability (Obatoclax + Foretinib; first compound 1 µM)	relative viability (Obatoclax + Vorinostat; first compound 0.01 µM)	relative viability (Obatoclax + Vorinostat; first compound 0.03162 µM)	relative viability (Obatoclax + Vorinostat; first compound 0.1 µM)	relative viability (Obatoclax + Vorinostat; first compound 0.3162 µM)	relative viability (Obatoclax + Vorinostat; first compound 1 µM)	relative viability ([2]; first compound 0.08 µM)	relative viability ([2]; first compound 0.253 µM)	relative viability ([2]; first compound 0.8 µM)	relative viability ([2]; first compound 2.53 µM)	relative viability ([2]; first compound 8 µM)	relative viability ([1]; first compound 0.253 µM)
NCI-H661	0.907	0.919	0.55	0.321	0.977	1.03	1.05	0.936	0.763	0.734	0.789	0.81	0.711	0.552	0.824	0.808	0.853	0.243	0.237	
NCI-H2170	0.705	0.688	0.444	0.14	1	1.02	0.996	1.02	0.975	0.698	0.88	0.742	0.799	0.782	0.573	0.563	0.471	0.203	0.112	0.692
PC-3 [JPC-3]	0.684	0.736	0.686	0.549	1	1.03	1.01	1.01	0.916	0.835	0.555	0.767	0.527	0.439	0.931	1.04	0.978	0.948	0.802	0.834
LCLC-103H	0.912	0.876	0.814	0.269	0.792	0.698	0.778	0.668	0.8	0.791	0.676	0.715	0.756	0.799	0.481	0.483	0.492	0.459	0.237	1.03
EKVX	0.852	0.984	0.758	0.261	0.911	0.76	0.427	0.752	1.09	0.747	0.592	0.765	0.725	0.649	0.55	0.579	0.603	0.499	0.151	0.981
NCI-H460	0.0265	0.0277	0.0233	0.0124	0.993	1.01	0.947	0.456	0.157	0.706	0.717	0.692	0.103	0.0463	0.545	0.546	0.487	0.144	0.0157	0.0399
NCI-H1793	0.16	0.151	0.136	0.116	0.602	0.743	0.758	0.609	0.675	0.725	0.71	0.714	0.711	0.722	0.379	0.446	0.365	0.138	0.0977	0.184
NCI-H727	0.467	0.264	0.252	0.208	1.04	0.628	1.07	0.699	1.08	1.18	1.14	1.29	1.05	1.3	0.372		0.407	0.257	0.186	

From the supplement of paper PMC10307832
